Test results reported in patent publication US20100035858A1, “Novel Compositions and Methods for Binding and Inhibiting 5-HT4 Receptor” (Immune Control, Inc., priority 2008, published 2010).
“Also recorded” adds a separate entry of the source.

How the values were obtained:
[1] = test system: Female Lewis rats; test: Toxicity in Female Lewis rats; format: in vivo; conditions: 100 mg/kg ip, in comparison with PBS control
Protocol: The next set of experiments was designed to determine the toxicity of the compounds. Each compound was administered to Female Lewis rats at a dose of 100 mg/kg via ip administration.

[2] = biological target: histamine type 1 receptor (Homo sapiens, UniProt P35367); test: Binding to non-5-HT receptors: histamine type 1 receptor; conditions: FIG. 12
Sequence of histamine type 1 receptor (P35367 whole entry): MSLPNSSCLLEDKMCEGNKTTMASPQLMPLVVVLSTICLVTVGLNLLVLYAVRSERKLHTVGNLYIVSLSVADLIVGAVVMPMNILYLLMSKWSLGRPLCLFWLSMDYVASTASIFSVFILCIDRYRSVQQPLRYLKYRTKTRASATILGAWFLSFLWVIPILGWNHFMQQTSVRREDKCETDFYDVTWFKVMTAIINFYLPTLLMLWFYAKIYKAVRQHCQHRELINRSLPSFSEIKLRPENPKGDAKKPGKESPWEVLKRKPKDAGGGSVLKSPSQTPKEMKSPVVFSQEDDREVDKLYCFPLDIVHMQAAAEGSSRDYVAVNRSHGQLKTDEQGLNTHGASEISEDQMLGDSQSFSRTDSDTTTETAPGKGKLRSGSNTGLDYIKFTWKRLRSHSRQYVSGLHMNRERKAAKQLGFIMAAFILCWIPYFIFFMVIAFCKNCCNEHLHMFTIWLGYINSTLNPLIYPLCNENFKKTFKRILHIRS
Protocol: (§1) The methods employed in this study have been adapted from the scientific literature to maximize reliability and reproducibility. Where presented, IC50 values were determined by a non-linear, least squares regression analysis using the DATA ANALYSIS TOOLBOX (MDL Information Systems, San Leandro, Calif., USA). Where inhibition constants (Ki) are presented, the Ki values were calculated using the equation of Cheng and Prusoff (Cheng, Y., Prusoff, W. H., Biochem. Pharmacol. 22:3099-3108, 1973) or equivalent using the observed IC50 of the tested compound, the concentration of ligand employed in the assay, and historical values for the KD of the ligand.
The next set of experiments was designed to assess the selective binding of the test compounds to non-5-HT receptors. The compounds tested are as follows: ICI-735, 848, 849, 1259, and 1260. […] It was also observed that the compounds that bound well to 5-HT4 receptor also bound well to histamine type 1 receptor.

[3] = test system: B-cell neoplastic cell line RPMI 8226; test: Inhibition of proliferation of RPMI cells; format: cell-based; conditions: RPMI cell viability, FIG. 1
Description: The next set of experiments was designed to assess compounds that have low levels of brain penetration for the ability of the test compounds to inhibit cellular proliferation. An exemplary in vitro assay is to screen for the ability of the test compounds to inhibit proliferation of the B-cell neoplastic cell line RPMI 8226 (a plasmacytoma derived from a multiple myeloma patient (Matsuoka, et al., 1967, Proc. Soc. Exp. Biol. Med. 125: 1246-1250). However other cell line can be used such as, U266 (established from an IgE-secreting myeloma patient (Nilsson, et al., 1970, Clin. Exp. Immunol., 7: 477-489) and ARH77 (an EBV transformed plasma cell leukemia (Burk, et al., 1978, Cancer Res. 38: 2508-2513).
FIG. 1 is a graph depicting the effects on the test compounds on RPMI cell viability.

[4] = test system: rat model of collagen-induced arthritis; test: Rat model of collagen-induced arthritis, ankle diameter; format: in vivo; conditions: for reduction of ankle diameter: 10 mg/kg ip daily, about 3 days, caliper measurement; for efficacy in reducing ankle diameter compared with Enbrel: rheumatoid arthritis rat model, versus Enbrel
Protocol: The next set of experiments was designed to test the ability of the compounds of the invention on a rat model of collagen-induced arthritis. Briefly, Female Lewis rats were immunized with bovine type 2 collagen 2 mg/mL in 0.01N HAc mixed 1:1 w/ FIA injected id 0.1 mL at each of three sites on back (Rosloniec, E. F., A. H. Kang, L. K. Myers, M. A. Cremer. 1996. Collagen-induced arthritis. R. Coico, and E. Shevach, eds. Current Protocols in Immunology 15.5.1. Weily & Sons, New York.).
FIG. 2 depicts a schematic of the collagen-induced arthritis protocol. Briefly, a test compound of the invention is delivered ip at 10 mg/kg daily, for about 3 days.
FIG. 4 depicts ICI 1260, 1259, 848, 849, 761, 715, and 847 with respect to Enbrel. Additional testing for the effectiveness of compounds ICI 1260, 1259, 848, 849, 761, 715, and 847 at various concentrations (10 mg/kg, 2 mg/kg, 0.4 mg/kg) were conducted, as illustrated in FIGS. 5A-5G. A dose response curve was constructed to illustrate the efficacy of the seven compounds (FIG. 6).

[5] = biological target: 5-HT4 receptor (Homo sapiens, UniProt Q13639); test: 5-HT4 receptor binding; conditions: versus fluphenazine (ICI-1175), FIG. 8
Sequence of 5-HT4 receptor (Q13639 whole entry): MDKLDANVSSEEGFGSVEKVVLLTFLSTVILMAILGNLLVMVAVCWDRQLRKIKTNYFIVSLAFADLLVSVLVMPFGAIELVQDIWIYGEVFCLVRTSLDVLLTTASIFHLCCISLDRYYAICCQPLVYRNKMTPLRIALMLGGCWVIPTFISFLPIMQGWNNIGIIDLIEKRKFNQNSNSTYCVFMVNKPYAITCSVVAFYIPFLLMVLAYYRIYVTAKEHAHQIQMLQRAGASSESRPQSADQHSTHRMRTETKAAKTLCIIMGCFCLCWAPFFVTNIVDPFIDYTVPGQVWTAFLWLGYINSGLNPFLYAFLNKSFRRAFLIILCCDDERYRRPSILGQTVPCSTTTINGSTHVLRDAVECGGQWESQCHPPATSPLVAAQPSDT
Protocol: as §1
(§2) The experiments include contacting a serotonin type 1B, 2A, 2B, 2C, 3, 4, 6, and 7 receptor with a test compound and comparing the level of binding of serotonin or a control ligand with that serotonin type 1B, 2A, 2B, 2C, 3, 4, 6, and 7 receptor with the level of serotonin binding or control ligand binding with an otherwise identical serotonin type 1B, 2A, 2B, 2C, 3, 4, 6, and 7 receptor not contacted with the test compound. […] The skilled artisan would also appreciate, in view of the disclosure provided herein, that standard binding assays known in the art, or those to be developed in the future, can be used to assess the binding of serotonin or a control ligand with a serotonin type 1B. 2A, 2B, 2C, 3, 4, 6, and 7 receptor in the presence or absence of the test compound to identify a useful compound.
(§3) The next set of experiments was designed to assess the selective binding of the test compounds to 5-HT receptors. ICI-848, ICI-1259, and ICI-1260 were tested against fluphenazine (ICI-1175) to determine selective binding to 5-HT receptors.
The next set of experiments was designed to assess the Ki values of the tested compounds.

[6] = biological target: 5-HT2A receptor (Homo sapiens, UniProt P28223); test: 5-HT2A receptor binding; conditions: versus fluphenazine (ICI-1175), FIG. 8
Sequence of 5-HT2A receptor (P28223 whole entry): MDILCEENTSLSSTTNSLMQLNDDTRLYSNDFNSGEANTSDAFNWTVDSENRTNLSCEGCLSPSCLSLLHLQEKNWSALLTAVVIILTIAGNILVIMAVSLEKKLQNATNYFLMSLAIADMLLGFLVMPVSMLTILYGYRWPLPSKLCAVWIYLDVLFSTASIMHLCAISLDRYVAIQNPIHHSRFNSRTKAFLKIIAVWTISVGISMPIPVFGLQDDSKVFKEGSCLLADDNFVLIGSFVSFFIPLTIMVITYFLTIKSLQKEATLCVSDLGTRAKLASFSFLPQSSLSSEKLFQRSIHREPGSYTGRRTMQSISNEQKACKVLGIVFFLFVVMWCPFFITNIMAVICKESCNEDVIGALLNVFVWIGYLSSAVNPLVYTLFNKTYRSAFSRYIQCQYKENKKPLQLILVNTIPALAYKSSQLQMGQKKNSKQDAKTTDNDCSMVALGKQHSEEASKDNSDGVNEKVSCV
Protocol: as §1, §2, §3

[7] = biological target: T1, 5-HT1A receptor (Homo sapiens, UniProt P08908); test: 5-HT1A receptor binding; conditions: versus fluphenazine (ICI-1175), FIG. 8
T1 sequence (P08908 1-422): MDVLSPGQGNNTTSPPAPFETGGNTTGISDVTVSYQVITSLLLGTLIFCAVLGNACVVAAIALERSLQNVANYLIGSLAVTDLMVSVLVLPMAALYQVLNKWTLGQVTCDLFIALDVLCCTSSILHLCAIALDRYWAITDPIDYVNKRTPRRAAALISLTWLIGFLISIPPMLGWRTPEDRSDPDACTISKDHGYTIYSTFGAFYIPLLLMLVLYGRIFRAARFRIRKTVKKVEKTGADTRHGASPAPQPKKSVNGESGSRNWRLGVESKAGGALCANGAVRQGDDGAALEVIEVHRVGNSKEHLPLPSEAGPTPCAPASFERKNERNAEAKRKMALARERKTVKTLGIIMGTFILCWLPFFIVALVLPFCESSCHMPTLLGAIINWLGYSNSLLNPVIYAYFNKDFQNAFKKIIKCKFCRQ
Protocol: as §1, §3

| SMILES | toxicity [1] | binding to histamine type 1 receptor [2] | ability to inhibit proliferation of RPMI cells [3] | reduction of ankle diameter ([4]; listed as ICI-848) | efficacy in reducing ankle diameter compared with Enbrel [4] | binding to 5-HT4 receptor compared to fluphenazine [5] | binding to 5-HT2A receptor compared to fluphenazine [6] | binding to 5-HT1A receptor compared to fluphenazine [7] | ability to inhibit proliferation of RPMI cells ([3]; listed as ICI-1260) | reduction of ankle diameter ([4]; listed as ICI-1260) |
| --- | --- | --- | --- | --- | --- | --- | --- | --- | --- | --- |
| NCC(=O)NCCN1CCC(CCCN2c3ccccc3Sc3ccc(C(F)(F)F)cc32)CC1 [ICI-00848] | not toxic | able to bind histamine type 1 receptor | able to inhibit the proliferation of RPMI cells | decrease the ankle diameter to a desirable level; also recorded: most desirable reduction of ankle diameter | more effective in reducing the ankle diameter than Enbrel | increased binding | decreased binding | decreased binding | – | – |
| NCC(=O)NCCCN1CCC(CCCN2c3ccccc3Sc3ccc(C(F)(F)F)cc32)CC1 [ICI-01260] | not toxic | able to bind histamine type 1 receptor | – | – | more effective in reducing the ankle diameter than Enbrel | increased binding | decreased binding | decreased binding | able to inhibit the proliferation of RPMI cells | decrease the ankle diameter to a desirable level; also recorded: most desirable reduction of ankle diameter |
